Values of other authors in patent publication US20050228335A1, “Physical, structural, mechanical, electrical and electromechanical features for use in association with electrically assisted delivery devices and systems” (priority 2004, published 2005).

Settings: iontophoresis in vitro across human skin

Compound | Cumulative delivery compared with lidocaine
CCCN(CC)C(CC)C(=O)Nc1c(C)cccc1C (centres unmarked) [etidocaine] | slightly greater delivery
CCN(CC)CCOC(=O)c1ccc(N)cc1 [procaine] | slightly greater delivery
